Results as given in patent US6461664B1, “Chelated feed additive and method of preparation” (Agristudio S. r. L., priority 1999, dated 2002).

Assay: solubility in water of the dried chelate
Format: physicochemical
Settings: ambient temperature, white powder
Method: In the case described, the dried chelate is in the form of a white powder, with a melting point of about 248° C. and a solubility in water of about 20 g/l at ambient temperature.

Substance: (CH3SCH2CH2CHOHCO)2Zn [Example 1]
- solubility in water: about 20 g/l
